The values that follow come from patent US20240082192A1, “TOPICAL F[…] PREGABALIN” (EGIS GYÓGYSZERGYÁR ZRT., priority 2021, published 2024).

For one data set, the system named is human patient. To be noted: same aqueous solution; cited from earlier work.
For data set [1] the following is noted: compositions containing 1 and 3% of pregabalin; cited from earlier work.
A further data set relates to Wistar rats. The data set can be described thus: Chronic constriction injury (CCI) rat model of neuropathy, paw withdrawal threshold with electronic von Frey device. It counts as in vivo. To be noted: 16.66 mg/kg. An excerpt:
Furthermore, based on the article Bennett G J, at al (Pain., A peripheral mononeuropathy in rat that produces disorders of pain sensation like those seen in man. 1988 April; 33(1):87-107) we have developed a method for the examination of the compositions of the present invention. Thus, we have examined the compositions according to the present invention also with a different model for measuring the alleviation of the peripheral neuropathic pain also. Namely, we have carried out examinations on rats using Chronic constriction injury (CCI) model. Three weeks following nerve injury rats were assessed for hind paw mechanical withdrawal thresholds. The paw withdrawal threshold (PWT) was determined with an Electronic von Frey device according to the modified up-down method of Dixon (Efficient analysis of experimental observations., Annu Rev Pharmacol Toxicol. 1980; 20:441-62). […] The method and results are shown in example 3 and on FIG. 9.
Thus, the compositions of the present invention are effective in the treatment of neuropathic pain. […]
Briefly, under isoflurane anesthesia small blunt dissection was made into the skin of rat right thigh then three loosely constrictive ligatures were placed around common sciatic nerve (chronic constriction injury CCI). Three weeks following nerve injury rats were assessed for hind paw mechanical withdrawal thresholds. […]

A short description of data set [2]: Pharmacokinetic studies, blood level of pregabalin after oral or topical administration.
A further data set has as its system Mouse. To be noted: topical 2.5% aqueous solution without other ingredients; cited from earlier work.

Consider `CC(C)C[C@H](CN)CC(=O)O` [pregabalin], for which, in the data set on human patient, the “duration of reduction of neuropathic pain” value was 6 h. In addition, the “time after which the pain alleviation effect decreased” value in data set [1] is 1.5 to 2 h. Also, the “reduction of hypersensitivity after oral administration” value in the data set with Wistar rats was “not able to reduce hypersensitivity”. The “amount entering the bloodstream during topical treatment” value in data set [2] was “very small amounts”. Besides, in the data set with Mouse, the “alleviating effect 6 hours after administration” value is on record as “the effect essentially disappeared” and the “time of maximum alleviating effect” value was 1 h.
